Test results published in paper PMC5668067, “Phase I dose-escalation study of the c-Met tyrosine kinase inhibitor SAR125844 in Asian patients with advanced solid tumors, including patients with MET-amplified gastric cancer” (Oncotarget, 2017).

How the values were obtained:
[1] = system: Asian patients with solid tumors; assay: phase I safety: treatment-emergent adverse events (NCI CTCAE v4.03), safety population; type: in vivo
Description: SAR was administered by weekly intravenous infusion on days 1, 8, 15, and 22 of each 28–day cycle. The starting dose was 260 mg/m^2, and dose increments of 30% were made, to a maximum of 570 mg/m^2. Treatment continued until disease progression, unacceptable toxicity, or consent withdrawal. Patients were screened within 21 days before the first administration and followed for 30 days after the last administration.
The safety population consisted of all patients exposed to SAR, regardless of the amount of treatment administered.

[2] = system: patients with solid tumors; design: method as in ref 9 = [9]; 9 Angevin E Spitaleri G Hollebecque A De Pas T Soria JC Harnois M Mazuir F Assadourian S De Marinis F A first-in-human (FIH) phase I study of SAR125844, a novel selective MET kinase inhibitor, in pati; settings: cited from earlier work
[3] = dose-escalation cohort, 260 mg/m^2 (N = 6)
[4] = dose-escalation cohort, 340 mg/m^2 (N = 4)
[5] = dose-escalation cohort, 440 mg/m^2 (N = 3)
[6] = dose-escalation cohort, 570 mg/m^2 (N = 6)
[7] = dose-expansion cohort, All (N = 19)
[8] = dose-expansion cohort, GC (N = 14)

With `O=C(NCCN1CCOCC1)Nc1nc2ccc(Sc3nnc4ccc(-c5ccc(F)cc5)nn34)cc2s1` [SAR125844] the “patients who discontinued treatment because of a TEAE” value ([1]; TEAE considered unrelated to the study drug) was “One”, the “TEAE Abdominal pains” value ([1]; Total (N = 38)) was 8 (21.1) n (%) and the “TEAE Back pain” value ([1]; Total (N = 38)) was 5 (13.2) n (%). For the same molecule, the “TEAE Cancer pain” value ([1]; Total (N = 38)) was 4 (10.5) n (%), the “TEAE Constipation” value ([1]; Total (N = 38)) was 8 (21.1) n (%) and the “TEAE Cough” value ([1]; Total (N = 38)) was 4 (10.5) n (%). For the same molecule, the “TEAE Decreased appetite” value ([1]; Total (N = 38)) was 11 (28.9) n (%), the “TEAE Diarrhea” value ([1]; Total (N = 38)) was 5 (13.2) n (%) and the “TEAE Edema, peripheral” value ([1]; Total (N = 38)) was 4 (10.5) n (%). The “TEAE Fatigue/asthenia” value ([1]; Total (N = 38)) was 8 (21.1) n (%), the “TEAE Injection site reaction/phlebitis” value ([1]; Total (N = 38)) was 7 (18.4) n (%) and the “TEAE Insomnia” value ([1]; Total (N = 38)) was 4 (10.5) n (%). The “TEAE Nausea” value ([1]; Total (N = 38)) was 14 (36.8) n (%), the “TEAE Pyrexia” value ([1]; Total (N = 38)) was 7 (18.4) n (%) and the “TEAE Rash” value ([1]; Total (N = 38)) was 4 (10.5) n (%). The “TEAE Vomiting” value ([1]; Total (N = 38)) was 13 (34.2) n (%), the “deaths due to adverse events” value ([1]; all patients (N = 38)) was “no deaths” and the “frequency of abdominal pains” value ([1]; all patients (N = 38)) was 21.1%. For the same molecule, the frequency of constipation ([1]; all patients (N = 38)) was 21.1%, the “frequency of decreased appetite” value ([1]; all patients (N = 38)) was 28.9% and the “frequency of fatigue or asthenia” value ([1]; all patients (N = 38)) was 21.1%. The frequency of nausea ([1]; all patients (N = 38)) was 36.8%, the frequency of vomiting ([1]; all patients (N = 38)) was 34.2% and the “patients with at least one dose modification” value ([1]; all patients (N = 38)) was “Nine”. For the same molecule, the “patients with drug-related Grade ≥ 3 AEs” value ([1]; all patients (N = 38)) was 7.9%, the “patients with infusion interrupted because of a grade 2 infusion-related reaction” value ([1]; all patients (N = 38)) was “one” and the “patients with study-drug related Grade ≥ 3 TEAEs” value ([1]; all patients (N = 38)) was “three”. For the same molecule, the “serious TEAEs considered study-drug related” value ([1]; all patients (N = 38)) was “none”, the “patients with Grade ≥ 3 TEAEs” value ([1]; all patients (N = 38), 15 patients) was 39.5% and the “patients with study-drug related TEAEs” value ([1]; all patients (N = 38), 22 patients) was 57.9%. For the same molecule, the “patients with TEAEs” value ([1]; all patients (N = 38), 36 patients) was 94.7%, the “patients with serious TEAEs” value ([1]; all patients (N = 38), eight patients) was 21.1% and the “TEAE Abdominal pains” value [1, 3] was 1 (16.7) n (%). For the same molecule, the “TEAE Back pain” value [1, 3] was 3 (50.0) n (%), the “TEAE Cancer pain” value [1, 3] was 0 (0) n (%) and the “TEAE Constipation” value [1, 3] was 2 (33.3) n (%). For the same molecule, the “TEAE Cough” value [1, 3] was 2 (33.3) n (%), the “TEAE Decreased appetite” value [1, 3] was 1 (16.7) n (%) and the “TEAE Diarrhea” value [1, 3] was 0 (0) n (%). The “TEAE Edema, peripheral” value [1, 3] was 0 (0) n (%), the “TEAE Fatigue/asthenia” value [1, 3] was 3 (50) n (%) and the “TEAE Injection site reaction/phlebitis” value [1, 3] was 1 (16.7) n (%). For the same molecule, the “TEAE Insomnia” value [1, 3] was 1 (16.7) n (%), the “TEAE Nausea” value [1, 3] was 1 (16.7) n (%) and the “TEAE Pyrexia” value [1, 3] was 4 (66.7) n (%). The “TEAE Rash” value [1, 3] was 2 (33.3) n (%), the “TEAE Vomiting” value [1, 3] was 1 (16.7) n (%) and the “TEAE Abdominal pains” value [1, 4] was 0 (0) n (%). The “TEAE Back pain” value [1, 4] was 0 (0) n (%), the “TEAE Cancer pain” value [1, 4] was 0 (0) n (%) and the “TEAE Constipation” value [1, 4] was 0 (0) n (%). The “TEAE Cough” value [1, 4] was 1 (25.0) n (%), the “TEAE Decreased appetite” value [1, 4] was 1 (25.0) n (%) and the “TEAE Diarrhea” value [1, 4] was 0 (0) n (%). For the same molecule, the “TEAE Edema, peripheral” value [1, 4] was 0 (0) n (%), the “TEAE Fatigue/asthenia” value [1, 4] was 0 (0) n (%) and the “TEAE Injection site reaction/phlebitis” value [1, 4] was 0 (0) n (%). The “TEAE Insomnia” value [1, 4] was 0 (0) n (%), the “TEAE Nausea” value [1, 4] was 2 (50) n (%) and the “TEAE Pyrexia” value [1, 4] was 0 (0) n (%). The “TEAE Rash” value [1, 4] was 1 (25.0) n (%), the “TEAE Vomiting” value [1, 4] was 1 (25.0) n (%) and the “TEAE Abdominal pains” value [1, 5] was 1 (33.3) n (%). The “TEAE Back pain” value [1, 5] was 0 (0) n (%), the “TEAE Cancer pain” value [1, 5] was 1 (33.3) n (%) and the “TEAE Constipation” value [1, 5] was 1 (33.3) n (%). For the same molecule, the “TEAE Cough” value [1, 5] was 0 (0) n (%), the “TEAE Decreased appetite” value [1, 5] was 1 (33.3) n (%) and the “TEAE Diarrhea” value [1, 5] was 0 (0) n (%). The “TEAE Edema, peripheral” value [1, 5] was 0 (0) n (%), the “TEAE Fatigue/asthenia” value [1, 5] was 1 (33.3) n (%) and the “TEAE Injection site reaction/phlebitis” value [1, 5] was 0 (0) n (%). The “TEAE Insomnia” value [1, 5] was 0 (0) n (%), the “TEAE Nausea” value [1, 5] was 0 (0) n (%) and the “TEAE Pyrexia” value [1, 5] was 0 (0) n (%). The “TEAE Rash” value [1, 5] was 0 (0) n (%), the “TEAE Vomiting” value [1, 5] was 0 (0) n (%) and the “TEAE Abdominal pains” value [1, 6] was 0 (0) n (%). The “TEAE Back pain” value [1, 6] was 0 (0) n (%), the “TEAE Cancer pain” value [1, 6] was 2 (33.3) n (%) and the “TEAE Constipation” value [1, 6] was 1 (16.7) n (%). The “TEAE Cough” value [1, 6] was 0 (0) n (%), the “TEAE Decreased appetite” value [1, 6] was 0 (0) n (%) and the “TEAE Diarrhea” value [1, 6] was 0 (0) n (%). For the same molecule, the “TEAE Edema, peripheral” value [1, 6] was 1 (16.7) n (%), the “TEAE Fatigue/asthenia” value [1, 6] was 0 (0) n (%) and the “TEAE Injection site reaction/phlebitis” value [1, 6] was 1 (16.7) n (%). The “TEAE Insomnia” value [1, 6] was 0 (0) n (%), the “TEAE Nausea” value [1, 6] was 3 (50) n (%) and the “TEAE Pyrexia” value [1, 6] was 0 (0) n (%). For the same molecule, the “TEAE Rash” value [1, 6] was 0 (0) n (%), the “TEAE Vomiting” value [1, 6] was 1 (16.7) n (%) and the “TEAE Back pain” value [1, 7] was 2 (10.5) n (%). For the same molecule, the “TEAE Cancer pain” value [1, 7] was 1 (5.3) n (%), the “TEAE Constipation” value [1, 7] was 4 (21.1) n (%) and the “TEAE Cough” value [1, 7] was 1 (5.3) n (%). The “TEAE Decreased appetite” value [1, 7] was 8 (42.1) n (%), the “TEAE Diarrhea” value [1, 7] was 5 (26.3) n (%) and the “TEAE Edema, peripheral” value [1, 7] was 3 (15.8) n (%). The “TEAE Fatigue/asthenia” value [1, 7] was 4 (21.1) n (%), the “TEAE Injection site reaction/phlebitis” value [1, 7] was 5 (26.3) n (%) and the “TEAE Insomnia” value [1, 7] was 3 (15.8) n (%). The “TEAE Nausea” value [1, 7] was 8 (42.1) n (%), the “TEAE Pyrexia” value [1, 7] was 3 (15.8) n (%) and the “TEAE Rash” value [1, 7] was 1 (5.3) n (%). For the same molecule, the “TEAE Vomiting” value [1, 7] was 10 (52.6) n (%), the “TEAE Abdominal pains” value [1, 8] was 2 (14.3) n (%) and the “TEAE Back pain” value [1, 8] was 2 (14.3) n (%). The “TEAE Cancer pain” value [1, 8] was 1 (7.1) n (%), the “TEAE Constipation” value [1, 8] was 2 (14.3) n (%) and the “TEAE Cough” value [1, 8] was 1 (7.1) n (%). For the same molecule, the “TEAE Decreased appetite” value [1, 8] was 5 (35.7) n (%), the “TEAE Diarrhea” value [1, 8] was 4 (28.6) n (%) and the “TEAE Edema, peripheral” value [1, 8] was 2 (14.3) n (%). The “TEAE Fatigue/asthenia” value [1, 8] was 2 (14.3) n (%), the “TEAE Injection site reaction/phlebitis” value [1, 8] was 4 (28.6) n (%) and the “TEAE Insomnia” value [1, 8] was 2 (14.3) n (%). The “TEAE Nausea” value [1, 8] was 4 (28.6) n (%), the “TEAE Pyrexia” value [1, 8] was 1 (7.1) n (%) and the “TEAE Rash” value [1, 8] was 1 (7.1) n (%). The “TEAE Vomiting” value [1, 8] was 6 (42.9) n (%), the “cases of transaminase increase (grade ≥ 3) leading to dose modification” value ([1]; laboratory findings) was “Two” and the “recommended dose (RD)” value ([2]; first-in-human study, Western countries, intravenously) was 570 mg/m^2 per week. For the same molecule, the tolerability profile ([2]; first-in-human study, doses 50‒740 mg/m^2) was “acceptable tolerability profile” and the antitumor activity ([2]; one patient with lung adenocarcinoma and MET amplification) was “Preliminary evidence of antitumor activity”.
